Results as given in patent publication US6172042A, “Synthetic peptides that inhibit IL-6 activity” (Yeda Research and Development Co. LTD, priority 1995, dated 2001).
Where a SMILES comes first, the peptide text is derived from it.

Tested on: B9 plasmacytoma-derived cells
Details: 250 μg/ml
Experimental: To assay the biological activity of the peptides as inhibitors of IL-6 action against growth of plasmacytoma cells, a hybridoma cell line B9 whose growth is IL-6 dependent (Helle et al, 1988) was used. The B9 cells were cultured in suspension in growth medium RPMI 1640 (Biolabs Ltd., Israel) with 10% heat-inactivated fetal calf serum and 4 U/ml IL-6.
Prior to assay, the B9 cells were washed and incubated for 5 hours in growth medium but without IL-6. The cells were centrifuged, resuspended in growth medium with 2.5 units/ml (i.e. 7.5 IU/ml) of IL-6 and seeded in a 96-well microplate (Nunc, Denmark) at 50,000 cells in a final volume of 0.2 ml per well. A 25 µl of water solution with appropriate peptide concentration was included in the final volume of each well, i.e. the peptides at concentrations ranging from 62.5 μg/ml to 250 μg/ml (as well as a 0 μg/ml control) were added together with the IL-6. […] The optical absorbance at 530 nm wavelength of each well was measured as specified by the manufacturer. The absorbance is directly proportional to the number of living cells in the well as verified in calibration experiments from 50,000 to 10^6 B9 cells (0.25 OD530 corresponding to 5×10^5 B9 cells under the present experimental conditions). The results were expressed as the difference between final cell density with IL-6 and without IL-6. […]

## CSCC[C@H](NC(=O)[C@H](Cc1c[nH]c2ccccc12)NC(=O)[C@@H](NC(=O)[C@@H](NC(=O)[C@H](Cc1ccccc1)NC(=O)[C@@H](NC(=O)[C@H](CCCCN)NC(=O)[C@H](CO)NC(=O)[C@H](CCCNC(=N)N)NC(=O)[C@H](CCC(=O)O)NC(=O)[C@H](C)NC(=O)[C@H](CCCNC(=N)N)NC(=O)[C@H](Cc1ccc(O)cc1)NC(=O)[C@H](CCCNC(=N)N)NC(=O)[C@@H](N)CC(C)C)[C@@H](C)O)[C@@H](C)O)[C@@H](C)O)C(=O)N[C@H](C(=O)O)C(C)C [peptide 1063, LRYRAERSKTFTTWMV] (H-LRYRAERSKTFTTWMV-OH)
  growth inhibition of B9 cells: 99%
